Assay results from patent EP0336753A1, “Improvements in or relating to propanamine derivatives” (ELI LILLY AND COMPANY, priority 1988, dated 1989).
Where two headings read alike, the source gives them in different places.

Tests used:
[1] = molecular target: T1, norepinephrine (NE) uptake (Rattus norvegicus, UniProt Q63380); experiment: Inhibition of synaptosomal uptake of 14C-l-norepinephrine in vitro; type: biochemical, rats; settings: for IC50: 100 nM ¹⁴C-NE, 37°C for 5 min, read-out: IC₅₀(nM) NE; for inhibition at 1 µM: read-out: percent inhibition at 1000 nM (NE)
T1 construct: Crude synaptosomal preparations were isolated after differential centrifugation; from tissue; host or cells: rat cerebral cortex, crude synaptosomes
T1 sequence (Q63380 1-617): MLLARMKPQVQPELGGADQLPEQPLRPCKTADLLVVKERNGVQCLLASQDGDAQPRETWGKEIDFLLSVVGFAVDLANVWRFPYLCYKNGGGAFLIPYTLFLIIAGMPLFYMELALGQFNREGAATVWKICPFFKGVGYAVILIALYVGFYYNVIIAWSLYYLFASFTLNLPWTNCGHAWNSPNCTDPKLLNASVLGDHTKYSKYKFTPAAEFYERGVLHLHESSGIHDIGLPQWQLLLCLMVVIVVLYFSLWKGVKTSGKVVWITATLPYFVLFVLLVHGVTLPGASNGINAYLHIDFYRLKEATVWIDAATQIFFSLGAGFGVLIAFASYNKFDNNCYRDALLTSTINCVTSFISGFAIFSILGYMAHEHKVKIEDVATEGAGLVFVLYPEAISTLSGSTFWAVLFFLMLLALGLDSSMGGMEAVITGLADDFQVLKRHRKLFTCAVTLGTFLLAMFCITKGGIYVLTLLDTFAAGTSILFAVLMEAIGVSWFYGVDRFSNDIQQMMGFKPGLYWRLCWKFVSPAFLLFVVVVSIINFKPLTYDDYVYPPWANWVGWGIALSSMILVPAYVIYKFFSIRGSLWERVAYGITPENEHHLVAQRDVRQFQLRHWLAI
Description: (§1) This general procedure is set forth by Wong et al., in Drug Development Research 6:397-403 (1985).
(§2) Male Sprague-Dawley rats (110-150 g) from Harlan Industries (Cumberland, IN) were fed a Purina Chow ad libitum for at least 3 days before being used in the studies. Rats were killed by decapitation. Whole brains were removed and dissected. Cerebral cortex was homogenized in 9 volumes of a medium containing 0.32 M sucrose and 10 mM glucose. Crude synaptosomal preparations were isolated after differential centrifugation at 1,000 g for 10 min. and 17,000 g for 28 min. The final pellets were suspended in the same medium and kept in ice until use within the same day.
(§3) Synaptosomal uptake of ³H-serotonin(³H-5-hydroxytryptamine, ³H-5HT) and ¹⁴C-ℓ-norepinephrine (¹⁴C-NE) was determined as follows. Cortical synaptosomes (equivalent to 1 mg of protein) were incubated at 37°C for 5 min in 1 ml of Krebs-bicarbonate medium containing also 10 mM glucose, 0.1 mM iproniazid, 1 mM ascorbic acid, 0.17 mM EDTA, 50nM, ³H-5HT and 100 nM ¹⁴C-NE. The reaction mixture was immediately diluted with 2 ml of ice-chilled Krebs-bicarbonate buffer and filtered under vacuum with a cell harvester (Brandel, Gaithersburg, MD). Filters were rinsed twice with approximately 5 ml of ice-chilled 0.9% saline and were transferred to a counting vial containing 10 ml of scintillation fluid (PCS, Amersham, Arlington Heights, IL). Radioactivity was measured by a liquid scintillation spectrophotometer. Accumulation of ³H-5HT and ¹⁴C-NE at 4°C represented the background and was subtracted from all samples.
(§4) The results of the evaluation of various compounds of the present invention are set forth below in Table I. In the Table, column 1 identifies the Example number of the compounds evaluated, and columns 2 and 3 provide the concentration of the test compound at 10⁻⁹M (nM) needed to inhibit 50% of serotonin (5HT) or norepinephrine, respectively, and is indicated in the Table as IC₅₀. The numbers in parentheses represent percent inhibition at 1000 nM.

serotonin (5HT) uptake = molecular target: T2, serotonin (5HT) uptake (Rattus norvegicus, UniProt P31652); experiment: Inhibition of synaptosomal uptake of 3H-serotonin in vitro; type: biochemical, rats; settings: for inhibition at 1 µM: 1000 nM test compound, number in parentheses, read-out: percent inhibition at 1000 nM (5HT)
T2 construct: Crude synaptosomal preparations were isolated after differential centrifugation; from tissue; host or cells: rat cerebral cortex, crude synaptosomes
T2 sequence (P31652 whole entry): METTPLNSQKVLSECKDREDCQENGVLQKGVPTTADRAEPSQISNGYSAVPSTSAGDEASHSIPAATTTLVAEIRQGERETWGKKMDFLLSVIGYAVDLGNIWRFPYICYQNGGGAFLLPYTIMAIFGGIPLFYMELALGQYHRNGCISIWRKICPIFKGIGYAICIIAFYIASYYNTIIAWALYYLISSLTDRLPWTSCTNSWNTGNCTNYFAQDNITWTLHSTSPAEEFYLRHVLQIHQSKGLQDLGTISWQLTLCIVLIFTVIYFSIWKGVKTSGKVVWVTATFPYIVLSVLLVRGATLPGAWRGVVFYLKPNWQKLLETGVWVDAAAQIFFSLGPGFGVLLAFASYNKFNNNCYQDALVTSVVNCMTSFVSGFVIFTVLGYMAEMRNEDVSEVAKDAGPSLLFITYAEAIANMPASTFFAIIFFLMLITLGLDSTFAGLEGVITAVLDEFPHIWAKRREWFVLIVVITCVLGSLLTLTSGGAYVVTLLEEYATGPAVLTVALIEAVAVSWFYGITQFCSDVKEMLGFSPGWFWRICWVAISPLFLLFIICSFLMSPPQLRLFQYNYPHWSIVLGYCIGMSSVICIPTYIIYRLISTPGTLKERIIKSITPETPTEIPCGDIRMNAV
Description: as §1, §2, §3, §4

[2] = rat cerebral cortex synaptosomes
[3] = 1000 nM test compound, number in parentheses, rat cerebral cortex synaptosomes

SMILES	IC50 [1, 2]	inhibition at 1 µM [1]	IC50 (serotonin (5HT) uptake)	inhibition at 1 µM [1, 3]	inhibition at 1 µM (serotonin (5HT) uptake; [2])	IC50 (serotonin (5HT) uptake; rat cerebral cortex synaptosomes, 50 nM ³H-5HT, 37°C for 5 min, read-out: IC₅₀(nM) 5HT)
CSc1ccc(OC(CCN(C)C)c2ccccc2)cc1 (centres unmarked) [Example 1, N,N-Dimethyl-γ-[4-(methylthio)phenoxy]benzenepropanamine ethanedioate]	> 1000 nM	18%	160 nM	–	–	–
CNCCC(Oc1ccc(SC)cc1)c1ccccc1 (centres unmarked) [Example 2, N-Methyl-γ-[4-(methylthio)phenoxy]benzenepropanamine ethanedioate]	704 nM	–	48 nM	–	–	–
CNCCC(Oc1ccc(SC(F)(F)F)cc1)c1ccccc1 (centres unmarked) [Example 3, N-Methyl-γ-{4-[trifluoromethyl)thio]phenoxy}benzenepropanamine ethanedioate]	> 1000 nM	–	–	9%	39%	> 1000 nM
CN(C)CCC(Oc1ccc(S(N)(=O)=O)cc1)c1ccccc1 (centres unmarked) [Example 4, 4-[3-(Dimethylamino)-1-phenylpropoxy]benzenesulfonamide ethanedioate]	> 1000 nM	0%	> 1000 nM	–	15%	–
CN(C)CCC(Oc1ccc(NS(C)(=O)=O)cc1)c1ccccc1 (centres unmarked) [Example 5, N-{4-[1-Phenyl-3-(dimethylamino)propoxy]phenyl}methanesulfonamide]	> 1000 nM	–	> 1000 nM	15%	30%	–
